For data set [1], the system named is human tumour xenografts with colon, lung and mammary cancers. The settings on record: mice with colon; cited from earlier work.
Data set [2] relates to primary human solid tumours. Particulars: in vitro; Ajani et al. Invest New Drugs (1988) 6:79-83; cited from earlier work.
The test system of a further data set is leukemia models. Particulars: mice; cited from earlier work.
The conditions of data set [3]: patients receiving five daily doses of the drug; cited from earlier work.
In data set [4] the test system is PC3 (prostate cancer) cells. The data set is described as follows: Effect on cell migration, PC3. It counts as cell-based. Particulars: Homo sapiens, 22 hours on the 25% of most motile cells, p value in same cell, read-out: Maximum effects (cell migration); for Emax at 0.01 µM: at 10^−8 M. The method, then: (§1) Cells of different cancer lines, i.e. U-373 MG (Glioma cancer), PC3 (prostate cancer and A549 (Lung cancer) were seeded on culture flask 48 hours before the migration experiment. On the test day, cells were treated with or without the azonafide derivatives mentioned in table 3 in closed Falcon dishes containing a buffered medium at a controlled temperature (37.0±0.1° C.) for 12 or 22 hours, as noted in the right column of table 3. The azonafide derivatives were used at three non-cytotoxic concentrations (10^−6 M, 10^−7, 10^−8 M). Migration of the cells was observed by means of a CCD-camera mounted on a phase-contrast microscope. Statistical analysis of the migration, with the non-parametric Mann-Whitney test, was established for 25% and 50% of the most motile cells and for the entire cell population.

The test system of data set [5] is U-373 MG, PC-3 and/or A549 cancer cells. Briefly: Effect on cell migration, summary of table 3. It is filed as cell-based, human. Particulars: for migration level of cancer cells: U-373 MG, PC-3 and/or A549 cancer cells at the non-cytotoxic concentrations of this study; for cell migration activity compared with the closest compounds known in the art: comparison drawn from table 3. As for the experimental part:
as §1

The test system of data set [6] is human cancer cell lines PC3, U-373MG, BxPC3, LoVo, A549 and MCF-7. Briefly: MTT test, effect on overall cell growth (mean of six cell lines, examples 27 to 45). It is filed as cell-based. Particulars: mean of six cell lines PC3, U-373MG, A549, MCF-7, 72 hours incubation, range of molar concentrations resulting in 50% inhibition of overall tumor cells growth. The method, then:
(§2) MTT tests were performed in order to rapidly, i.e. within 5 days, measure the effect of azonafide derivatives of this invention on the overall cell growth. The test measures the number of metabolically active living cells that are able to transform the yellow product 3-(4,5-dimethylthiazol-2-yl)-2,5-diphenyl tetrazolium bromide (herein referred as MTT) into the blue product formazan dye by mitochondrial reduction. The amount of formazan obtained at the end of the experiment, measured by means of a spectrophotometer, is directly proportional to the number of living cells. Optical density determination thus enables a quantitative measurement of the effect of the investigated compounds as compared to the control condition (untreated cells) and/or to other reference compounds.
(§3) Height human cancer cell lines described in table 1 were used in the following MTT tests. These cell lines cover six histological cancer types, being prostate, glioma, pancreas, colon, lung and breast cancers. Cells were allowed to grow in 96-well micro-wells with a flat bottom with an amount of 100 μl of cell suspension per well with 1,000 to 4,000 cells/well depending on the cell type used. Each cell line was seeded in a well known MEM 5% serum culture medium.
(§4) The detailed experimental procedure was as following: after a 24-hour period of incubation at 37° C., the culture medium was replaced by 100 μl of fresh medium in which the compound to be tested was dissolved at the following molar concentrations: 10^−9 M, 5.10^−9 M, 10^−8 M, 5.10^−8 M, 10^−7 M, 5.10^−7 M, 10^−6 M, 5.10^−6 M and 10^−5 M. Each experiment was repeated 6 times.
(§5) After 72 hours of incubation at 37° C. with (experimental conditions) or without (control condition) the compound to be tested, the medium was replaced by 100 μl MTT dissolved in RPMI at a concentration of 1 mg/ml. The micro-wells were subsequently incubated during 3 hours at 37° C. and centrifuged at 400 g during 10 minutes. MTT was removed and formazan crystals formed were dissolved in 100 μl DMSO. The micro-wells were shaken for 5 minutes and read on a spectrophotometer at wavelengths of 570 nm (maximum formazan absorbance) and 630 nm (back-ground noise).
(§6) For each experimental condition, the mean optical density was calculated, as well as the percentage of remaining living cells in comparison with the control.
(§7) IC50 values for compounds of examples 3 to 26 were obtained on cell lines Hs683, U-373MG, HCT-15, LoVo, A549 and MCF-7 described in Table 1. IC50 values for compounds from examples 27 to 45 were obtained on cell lines PC3, U-373MG, BxPC3, LoVo, A549 and MCF-7 described in Table 1.

Data set [7] concerns U-373 MG (Glioma cancer) cells. The data set is described as follows: Effect on cell migration, U-373MG. It is filed as cell-based. Particulars: Homo sapiens, U373 MG, 22 hours on the 25% of most motile cells, p value in same cell, read-out: Maximum effects (cell migration); for Emax at 1 µM: at 10^−6 M. The method, then:
as §1

For another data set, the system named is A549 (Lung cancer) cells. Briefly: Effect on cell migration, A549. It counts as cell-based. The settings on record: Homo sapiens, p value in same cell, read-out: Maximum effects (cell migration); for Emax at 0.01 µM: 22 hours on the 25% of most motile cells, at 10^−8 M. As for the experimental part: as §1
In data set [8] the test system is human cancer cell lines Hs683, U-373MG, HCT-15, LoVo, A549 and MCF-7. The data set is described as follows: MTT test, effect on overall cell growth (mean of six cell lines, examples 3 to 26). It is filed as cell-based. Particulars: mean of six cell lines Hs683, U-373MG, A549, MCF-7, 72 hours incubation, range of molar concentrations resulting in 50% inhibition of overall tumor cells growth. The method, then:
as §2, §3, §4, §5, §6, §7

Data set [9] deals with human Myeloma 8226/DOX 40 cell line. The settings on record: U.S. Pat. No. 5,635,506; cited from earlier work.
A further data set relates to tumors. The settings on record: mice; compared with amonafide; U.S. Pat. No. 5,635,506; cited from earlier work.
Data set [10] concerns multidrug resistant tumors. Particulars: in vitro; U.S. Pat. No. 5,635,506; cited from earlier work.
For data set [11] the following is noted: compared with amonafide; U.S. Pat. No. 5,635,506; cited from earlier work.

The structures appear in SMILES notation.

For the molecule `CN(C)CCN1C(=O)c2cccc3cc(N)cc(c23)C1=O` [amonafide], in [1], the “activity in human tumour xenografts” value is on record as “no activity”. Moreover, in [2], the “activity in primary human solid tumours” value is “poor activity”. Further, in the data set with leukemia models, the “activity in leukemia models” value is recorded as “only moderate activity”. Further, in data set [3], the myelotoxicity entry is “substantial myelotoxicity leading to some deaths”.

`CN(C)CCN1C(=O)c2cccc3cc4cccc(NC(=S)Nc5ccc(OC(F)(F)F)cc5)c4c(c23)C1=O` [Example 31, 1-{2-[2-(dimethylamino)ethyl]-1,3-dioxo-2,3-dihydro-1H-dibenzo[de,h]isoquinolin-11-yl}-3-[4-(trifluoromethoxy)phenyl]thiourea]: the figures for the Emax at 1 µM in data set [4] (at 10^−6 M) and in data set [7] were -30% and -60%, respectively. The “migration level of cancer cells” value in data set [5] is recorded as “induced a decrease in the migration level”. Further, the “cell migration activity compared with the closest compounds known in the art” value in data set [5] is on record as “significantly greater cell migration activity than the closest compounds known in the art, or similar cell migration activity at significantly lower concentrations”. This molecule had an IC50 in [6] greater than 10 µM.

On to `CN(C)CCN1C(=O)c2cccc3cc4c(N=Cc5cc(O)ccc5O)cccc4c(c23)C1=O` (stereo in doubt) [Example 6, 8-{[(1Z)-(2,5-dihydroxyphenyl)methylidene]amino}-2-[2-(dimethylamino)ethyl]-1H-dibenzo[de,h]isoquinoline-1,3(2H)-dione], for which the melting point was determined as 205 °C. For the same molecule, the Emax at 0.01 µM in the data set on A549 (Lung cancer) cells was -29%. Besides, in data set [4], the Emax at 0.01 µM is -24%. Also, the IC50 in [8] lay within 1 to 5 µM. Further, in data set [5], the “migration level of cancer cells” value is listed as “induced a decrease in the migration level” and the “cell migration activity compared with the closest compounds known in the art” value is “significantly greater cell migration activity than the closest compounds known in the art, or similar cell migration activity at significantly lower concentrations”.

Regarding `CN(C)CCN1C(=O)c2cccc3cc4c(/N=C/c5ccc6c(c5)OCO6)cccc4c(c23)C1=O` [Example 8, 8-{[(1E)-1,3-benzodioxol-5-ylmethylidene]amino}-2-[2-(dimethylamino)ethyl]-1H-dibenzo[de,h]isoquinoline-1,3(2H)-dione], the Emax at 0.01 µM in [4] was -29%. The IC50 in data set [8] was in the range of 1 to 5 µM. Also, in data set [5], the “migration level of cancer cells” value was “induced a decrease in the migration level” and the “cell migration activity compared with the closest compounds known in the art” value is listed as “significantly greater cell migration activity than the closest compounds known in the art, or similar cell migration activity at significantly lower concentrations”. Moreover, the Emax at 1 µM in data set [7] is -30%.

In the case of `CN(C)CCN1C(=O)c2cccc3cc4ccccc4c(c23)C1=O` [azonafide, 2-[2′-(dimethylamino)ethyl]-1,2-dihydro-3H-dibenz(deh)isoquinoline-1,3-dione], the cross resistance entry in [9] is “possible three-fold cross resistance”. For the same molecule, in the data set on tumors, the “appearance of tumors and tumor growth” value was “delay the appearance of tumors and to reduce tumor growth in mice with more efficiency than amonafide”. For the same molecule, the “anti-tumor activity on multidrug resistant tumors” value in [10] is “showed anti-tumor activity”. Also, the cardiotoxicity entry in [11] is listed as “higher cardiotoxicity than amonafide”.

Molecule `CN(C)CCN1C(=O)c2cccc3cc4cccc(/N=C\c5ccc6c(c5)OCO6)c4c(c23)C1=O` [Example 7, 11-{[(1Z)-1,3-benzodioxol-5-ylmethylidene]amino}-2-[2-(dimethylamino)ethyl]-1H-dibenzo[de,h]isoquinoline-1,3(2H)-dione] came in with a melting point of 198 °C. Moreover, the Emax at 1 µM with A549 (Lung cancer) cells (22 hours on the 100% of cells, at 10^−6 M) is -20%. The same molecule displayed an IC50 in data set [8] greater than 10 µM. Further, the “migration level of cancer cells” value in [5] is listed as “induced a decrease in the migration level”.

For `CN(C)CCN1C(=O)c2cccc3cc4cccc(/N=C\c5cc(O)ccc5O)c4c(c23)C1=O` [Example 5, 11-{[(1Z)-(2,5-dihydroxyphenyl)methylidene}amino]-2-[2-(dimethylamino)ethyl]-1H-dibenzo[de,h]isoquinoline-1,3(2H)-dione], the melting point was 225 °C. The Emax at 0.01 µM with A549 (Lung cancer) cells was -47%. In data set [8], this molecule yielded a 50% inhibitory concentration (IC50) greater than 10 µM. Further, in [5], the “migration level of cancer cells” value was “induced a decrease in the migration level” and the “cell migration activity compared with the closest compounds known in the art” value is on record as “significantly greater cell migration activity than the closest compounds known in the art, or similar cell migration activity at significantly lower concentrations”.

Consider `CCCCCNC(=O)Nc1cccc2cc3cccc4c3c(c12)C(=O)N(CCN(C)C)C4=O` [Example 13, 1-{2-[2-(dimethylamino)ethyl]-1,3-dioxo-2,3-dihydro-1H-dibenzo[de,h]isoquinolin-11-yl}-3-pentylurea], for which the Emax at 0.01 µM in [4] is -43%. In data set [8], this molecule registered an IC50 of 5 to 10 µM. In addition, in data set [5], the “migration level of cancer cells” value is reported as “induced a decrease in the migration level” and the “cell migration activity compared with the closest compounds known in the art” value is “significantly greater cell migration activity than the closest compounds known in the art, or similar cell migration activity at significantly lower concentrations”. In addition, the Emax at 0.1 µM in data set [7] (at 10^−7 M) was -24%.

The values above are taken from patent US7741337B2, “Azonafide derivatives, methods for their production and pharmaceutical compositions therefrom” (Unibioscreen S.A., priority 2005, dated 2010).
